# From patent publication US9296704B2, “Substituted pyrimidines as protein kinase inhibitors” (CELGENE AVILOMICS RESEARCH, INC., priority 2007, dated 2016)
# Experiments:
# Type in all cases: biochemical
# [1] = target: T1, EGFR (WT) (Homo sapiens, UniProt P00533); assay: Omnia continuous-read kinase assay, EGFR (WT); details: read-out: EGFR inhibtion
# T1 construct: purchased Invitrogen PV3872
# Source text: (§1) The protocol below describes continuous-read kinase assays to measure inherent potency of compounds against active forms of EGFR (WT) and EGFR (T790M/L858R) enzymes. The mechanics of the assay platform are best described by the vendor (Invitrogen, Carlsbad, Calif.) on their website at the following URL: http://www.invitrogen.com/content.cfm?pageid=11338 or http://www.invitrogen.com/site/us/en/home/Products-and-Services/Applications/Drug-Discovery/Target-and-Lead-Identification-and-Validation/KinaseBiology/KB-Misc/Biochemical-Assays/Omnia-Kinase-Assays.html.
# (§2) Briefly, 10× stocks of EGFR-WT (PV3872) from Invitrogen and EGFR-T790M/L858R (40350) from BPS Bioscience, San Diego, Calif., 1.13×ATP (AS001A) and appropriate Tyr-Sox conjugated peptide substrates (KCZI001) were prepared in 1× kinase reaction buffer consisting of 20 mM Tris, pH 7.5, 5 mM MgCl2, 1 mM EGTA, 5 mM β-glycerophosphate, 5% glycerol (10× stock, KB002A) and 0.2 mM DTT (DS001A). 5 μL of each enzyme were pre-incubated in a Corning (#3574) 384-well, white, non-binding surface microtiter plate (Corning, NY) for 30 min. at 27° C. with a 0.5 μL volume of 50% DMSO and serially diluted compounds prepared in 50% DMSO. Kinase reactions were started with the addition of 45 μL of the ATP/Tyr-Sox peptide substrate mix and monitored every 30-90 seconds for 60 minutes at λex360/λem485 in a Synergy^4 plate reader from BioTek (Winooski, Vt.). At the conclusion of each assay, progress curves from each well were examined for linear reaction kinetics and fit statistics (R^2, 95% confidence interval, absolute sum of squares). Initial velocity (0 minutes to ˜30 minutes) from each reaction was determined from the slope of a plot of relative fluorescence units vs time (minutes) and then plotted against inhibitor concentration to estimate IC50 from log [Inhibitor] vs Response, Variable Slope model in GraphPad Prism from GraphPad Software (San Diego, Calif.).
# (§3) The EGFR-WT- and EGFR T790M/L858R-modified optimized reagent conditions are: • [EGFR-WT]=5 nM, [ATP]=[…], [Y12-Sox]=[…]; and [EGFR-T790M/L858R]=3 nM, [ATP]=[…], [Y12-Sox]=[…].
# [2] = target: T2, EGFR (T790M/L858R) (Homo sapiens, UniProt P00533, L858R/T790M); assay: Omnia continuous-read kinase assay, EGFR (T790M/L858R); details: read-out: EGFR (T790M/L858R) inhibiton
# T2 construct: purchased BPS Bioscience 40350
# Source text: as §1, §2, §3
# [3] = target: T3, JAK3 (Homo sapiens, UniProt P52333); assay: Omnia assay for potency against JAK3; details: read-out: JAK3 Inhibition
# T3 sequence (P52333 1-1124): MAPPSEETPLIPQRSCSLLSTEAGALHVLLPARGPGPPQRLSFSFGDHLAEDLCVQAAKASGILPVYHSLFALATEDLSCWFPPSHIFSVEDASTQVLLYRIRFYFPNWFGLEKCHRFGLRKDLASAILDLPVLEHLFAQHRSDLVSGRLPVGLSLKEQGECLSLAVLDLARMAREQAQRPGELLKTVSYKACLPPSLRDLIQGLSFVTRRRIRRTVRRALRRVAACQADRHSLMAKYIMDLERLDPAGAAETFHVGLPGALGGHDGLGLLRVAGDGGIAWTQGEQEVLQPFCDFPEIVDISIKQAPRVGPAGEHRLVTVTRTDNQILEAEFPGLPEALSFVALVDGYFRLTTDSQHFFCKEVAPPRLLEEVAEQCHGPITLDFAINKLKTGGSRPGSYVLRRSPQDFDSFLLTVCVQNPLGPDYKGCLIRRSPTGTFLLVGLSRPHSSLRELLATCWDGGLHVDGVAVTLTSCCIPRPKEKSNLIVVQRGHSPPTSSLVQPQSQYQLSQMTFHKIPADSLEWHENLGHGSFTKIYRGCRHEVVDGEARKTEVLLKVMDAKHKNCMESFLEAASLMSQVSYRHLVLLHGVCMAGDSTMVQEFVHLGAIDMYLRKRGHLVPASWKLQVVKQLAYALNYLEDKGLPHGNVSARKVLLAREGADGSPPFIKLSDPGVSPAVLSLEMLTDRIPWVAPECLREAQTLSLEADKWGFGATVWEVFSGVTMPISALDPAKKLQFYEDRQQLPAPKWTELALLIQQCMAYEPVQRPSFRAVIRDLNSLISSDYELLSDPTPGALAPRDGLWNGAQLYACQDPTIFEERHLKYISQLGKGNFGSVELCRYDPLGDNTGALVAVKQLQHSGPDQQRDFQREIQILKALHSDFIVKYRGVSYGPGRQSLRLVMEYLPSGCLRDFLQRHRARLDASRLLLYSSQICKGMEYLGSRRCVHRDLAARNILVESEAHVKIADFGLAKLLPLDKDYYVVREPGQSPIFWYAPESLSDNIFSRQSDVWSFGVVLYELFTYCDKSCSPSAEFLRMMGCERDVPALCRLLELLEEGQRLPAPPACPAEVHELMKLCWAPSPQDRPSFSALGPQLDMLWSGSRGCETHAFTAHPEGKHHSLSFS
# Source text: as §1, §2
# The Omnia Assay Protocol for potency assessment against JAK3 is performed in a substantially similar manner as that described in Example 25 above except that the modified JAK3-optimized reagent conditions are: • [JAK3]=5 nM, [ATP]=5 μM, [Y12-Sox]=5 μM (ATP KMapp ˜[…]).
# [4] = target: BTK (Homo sapiens, UniProt Q06187); assay: Omnia assay for potency against BTK; details: read-out: BTK Inhibition
# Source text: as §1, §2
# The Omnia Assay Protocol for potency assessment against BTK is performed in a substantially similar manner as that described in Example 25 above except that the modified BTK-optimized reagent conditions are: • [BTK]=5 nM, [ATP]=[…], [Y5-Sox]=[…] (ATP KMapp ˜[…]).
# Sequence of BTK (Q06187 whole entry): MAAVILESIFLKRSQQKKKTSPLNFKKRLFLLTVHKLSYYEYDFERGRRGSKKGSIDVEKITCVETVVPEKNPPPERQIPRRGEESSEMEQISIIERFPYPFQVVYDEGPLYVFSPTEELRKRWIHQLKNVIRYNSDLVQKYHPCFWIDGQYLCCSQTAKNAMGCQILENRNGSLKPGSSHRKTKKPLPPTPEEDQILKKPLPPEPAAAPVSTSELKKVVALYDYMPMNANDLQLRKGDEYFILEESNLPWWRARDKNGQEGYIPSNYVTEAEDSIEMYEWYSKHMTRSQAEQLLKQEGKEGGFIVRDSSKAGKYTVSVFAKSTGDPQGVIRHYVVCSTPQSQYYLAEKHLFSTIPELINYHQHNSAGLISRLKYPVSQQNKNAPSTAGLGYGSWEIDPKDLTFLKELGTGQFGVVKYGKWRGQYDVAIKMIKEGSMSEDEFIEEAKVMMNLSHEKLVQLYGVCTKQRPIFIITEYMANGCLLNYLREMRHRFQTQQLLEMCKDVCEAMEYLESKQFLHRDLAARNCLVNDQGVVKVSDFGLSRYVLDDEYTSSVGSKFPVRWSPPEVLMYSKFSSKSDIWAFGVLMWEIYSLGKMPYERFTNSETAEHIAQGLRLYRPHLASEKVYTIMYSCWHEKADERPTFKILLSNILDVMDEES
# T1 sequence (P00533 25-1210): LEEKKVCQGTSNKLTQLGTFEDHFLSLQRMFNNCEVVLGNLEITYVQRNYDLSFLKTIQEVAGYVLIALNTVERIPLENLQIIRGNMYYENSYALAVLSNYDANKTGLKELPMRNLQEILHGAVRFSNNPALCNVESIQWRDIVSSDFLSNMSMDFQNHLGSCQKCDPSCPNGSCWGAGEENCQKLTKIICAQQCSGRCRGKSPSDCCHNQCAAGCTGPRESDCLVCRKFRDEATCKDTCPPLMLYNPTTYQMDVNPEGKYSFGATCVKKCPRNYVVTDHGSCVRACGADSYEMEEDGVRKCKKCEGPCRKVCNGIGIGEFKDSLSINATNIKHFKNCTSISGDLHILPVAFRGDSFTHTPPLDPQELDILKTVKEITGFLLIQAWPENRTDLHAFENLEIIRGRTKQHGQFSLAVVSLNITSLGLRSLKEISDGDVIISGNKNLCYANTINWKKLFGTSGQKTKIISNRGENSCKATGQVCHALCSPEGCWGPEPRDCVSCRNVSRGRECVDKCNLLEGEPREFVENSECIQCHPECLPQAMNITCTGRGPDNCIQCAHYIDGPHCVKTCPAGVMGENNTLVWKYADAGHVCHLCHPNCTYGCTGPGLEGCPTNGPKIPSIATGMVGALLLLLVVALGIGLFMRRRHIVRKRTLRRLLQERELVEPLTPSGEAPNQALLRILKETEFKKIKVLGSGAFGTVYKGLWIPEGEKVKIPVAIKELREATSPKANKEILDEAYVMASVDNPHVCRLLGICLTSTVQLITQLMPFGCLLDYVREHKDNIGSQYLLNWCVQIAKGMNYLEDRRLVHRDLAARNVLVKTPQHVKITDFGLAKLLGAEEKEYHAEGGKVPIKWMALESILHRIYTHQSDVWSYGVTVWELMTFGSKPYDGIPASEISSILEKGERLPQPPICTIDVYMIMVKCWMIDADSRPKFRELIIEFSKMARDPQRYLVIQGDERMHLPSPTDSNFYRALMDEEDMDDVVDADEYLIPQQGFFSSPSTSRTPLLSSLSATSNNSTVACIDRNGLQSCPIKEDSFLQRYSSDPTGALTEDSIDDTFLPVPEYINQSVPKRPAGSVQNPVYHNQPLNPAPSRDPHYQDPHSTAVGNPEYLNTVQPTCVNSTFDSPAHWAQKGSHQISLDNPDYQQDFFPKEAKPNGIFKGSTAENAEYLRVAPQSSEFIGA
# T2 sequence (P00533 25-1210 T790M/L858R): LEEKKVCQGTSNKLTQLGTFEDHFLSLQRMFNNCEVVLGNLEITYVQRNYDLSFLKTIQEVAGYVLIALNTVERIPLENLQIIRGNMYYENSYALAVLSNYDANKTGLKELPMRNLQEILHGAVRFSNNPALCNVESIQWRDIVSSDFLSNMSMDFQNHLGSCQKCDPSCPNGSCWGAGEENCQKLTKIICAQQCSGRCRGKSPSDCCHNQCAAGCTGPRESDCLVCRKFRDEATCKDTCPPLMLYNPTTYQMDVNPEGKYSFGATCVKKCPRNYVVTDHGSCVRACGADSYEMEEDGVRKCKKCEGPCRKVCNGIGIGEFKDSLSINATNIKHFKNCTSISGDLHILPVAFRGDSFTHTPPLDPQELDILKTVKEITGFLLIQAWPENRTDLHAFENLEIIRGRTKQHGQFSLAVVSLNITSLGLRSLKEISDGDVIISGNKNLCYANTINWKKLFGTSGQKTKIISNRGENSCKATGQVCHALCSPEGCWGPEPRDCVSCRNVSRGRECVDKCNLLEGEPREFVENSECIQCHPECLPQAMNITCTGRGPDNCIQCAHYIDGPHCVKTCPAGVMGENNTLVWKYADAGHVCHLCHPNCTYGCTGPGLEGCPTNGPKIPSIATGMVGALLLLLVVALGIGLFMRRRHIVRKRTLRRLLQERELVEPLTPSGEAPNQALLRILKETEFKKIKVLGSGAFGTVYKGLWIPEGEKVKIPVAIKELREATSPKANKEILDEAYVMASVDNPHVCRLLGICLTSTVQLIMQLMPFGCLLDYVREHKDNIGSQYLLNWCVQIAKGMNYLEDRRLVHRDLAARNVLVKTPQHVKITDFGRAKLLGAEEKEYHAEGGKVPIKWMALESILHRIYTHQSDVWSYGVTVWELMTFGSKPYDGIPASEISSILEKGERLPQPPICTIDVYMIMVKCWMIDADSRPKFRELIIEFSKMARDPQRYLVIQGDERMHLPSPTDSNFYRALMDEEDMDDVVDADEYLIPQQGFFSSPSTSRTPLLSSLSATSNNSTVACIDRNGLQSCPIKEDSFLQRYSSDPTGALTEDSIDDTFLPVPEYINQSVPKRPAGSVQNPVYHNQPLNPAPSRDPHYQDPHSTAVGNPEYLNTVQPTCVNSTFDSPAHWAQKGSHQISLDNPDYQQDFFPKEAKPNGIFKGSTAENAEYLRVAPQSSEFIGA
IC50 [1],IC50 [2],IC50 [3],IC50 [4],Compound
≤ 10 nM,10 to 100 nM,–,–,CC(Cl)C(=O)Nc1cccc(Nc2cc(Nc3ccc(F)c(Cl)c3)ncn2)c1 (stereo not shown) [I-50)]
≤ 10 nM,–,≤ 10 nM,10 to 100 nM,"C#Cc1cccc(Nc2cc(Nc3cccc(NC(=O)C=C)c3)ncn2)c1 [I-68, N-3-[6-(3-ethynylphenylamino)-pyrimidin-4-yl]aminophenyl-2-propenamide]"
10 to 100 nM,–,100 to 1000 nM,100 to 1000 nM,"O=C(CCl)Nc1cccc(Nc2cc(Oc3ccc(NC(=O)Nc4ccc(Cl)c(C(F)(F)F)c4)cc3)ncn2)c1 [I-69, N-3-[6-(4-[4-[[4-chloro-3-(trifluoromethyl)phenyl]amino]-carbonyl]amino)phenoxypyrimidin-4-yl]aminophenylchloroacetamide]"
≤ 10 nM,–,100 to 1000 nM,100 to 1000 nM,"C=CC(=O)N1CCC(Nc2cc(Nc3ccc(F)c(Cl)c3)ncn2)C1 (stereo not shown) [I-70, 1-(3-(6-(3-chloro-4-fluorophenyamino)pyrimidin-4-ylamino)pyrrolidin-1-yl)prop-2-en-1-one]"
≤ 10 nM,–,≤ 10 nM,≤ 10 nM,"CN(C)C/C=C/C(=O)Nc1cccc(Nc2cc(Nc3ccccc3)ncn2)n1 [I-73, (E)-4-(dimethylamino)-N-(6-(6-(phenylamino)pyrimidin-4-ylamino)pyridine-2-yl)but-2-enamide]"
≤ 10 nM,–,100 to 1000 nM,≤ 10 nM,"C=CC(=O)Nc1cccc(Nc2cc(Nc3cccc(Oc4ccccc4)c3)ncn2)c1 [I-75, N-(3-(6-(3-phenoxyphenylamino)pyrimidin-4-ylamino)phenyl)acrylamide]"
10 to 100 nM,–,≥ 10000 nM,10 to 100 nM,"C=CC(=O)N1CCCC(Nc2cc(Nc3ccc(Oc4ccccc4)cc3)ncn2)C1 (stereo not shown) [I-86, 1-(3-(6-(4-phenoxyphenylamino)pyrimidin-4-ylamino)piperidin-1-yl)prop-2-en-1one]"
10 to 100 nM,–,–,≥ 10000 nM,"CC(C)=CC(=O)c1cccc(Nc2cc(Nc3ccc(Oc4ccccc4)cc3)ncn2)c1 [I-87, 3-methyl-1-(3-(6-(4-phenoxyphenylamino)pyrimidin-4-ylamino)phenyl)but-2-en-1-one]"
≤ 10 nM,–,–,≤ 10 nM,"C=CC(=O)Nc1cccc(Nc2cc(Oc3ccc(OC)cc3)ncn2)n1 [I-91, N-(6-(6-(4-methoxyphenoxy)pyrimidin-4-ylamino)pyridine-2-yl)acrylamide]"
≤ 10 nM,–,–,–,CN(C)C/C=C/C(=O)Nc1cccc(Nc2cc(Oc3ccc(F)c(Cl)c3)ncn2)c1 [I-92)]
≤ 10 nM,–,–,100 to 1000 nM,"C=CC(=O)Nc1cccc(Nc2cc(Oc3ccc(Oc4ccccc4)cc3)ncn2)c1 [I-97, N-(3-(6-(4-phenoxyphenoxy)pyrimidin-4-ylamino)phenyl)acrylamide]"
≤ 10 nM,–,–,10 to 100 nM,"C=CC(=O)Nc1cc(Nc2cc(Oc3cccc(Cl)c3)ncn2)ccc1N1CCOCC1 [I-105, N-(2-morpholino-5-(6-(3-chlorophenoxy)pyrimidin-4-ylamino)phenyl)acrylamide]"

# Second part, the compound before the results:
Compound,IC50 [1],IC50 [2],IC50 [3],IC50 [4]
"CC(Cl)C(=O)Nc1cccc(Nc2cc(Nc3ccc(F)c(Cl)c3)ncn2)c1 (stereo not shown) [I-50, 2-chloro-N-[3-(6-{3-chloro-4-fluorophenyl}aminopyrimidin-4-yl)aminophenyl]propionamide]",–,–,100 to 1000 nM,1000 to 10000 nM
"CN(C)C/C=C/C(=O)Nc1cccc(Nc2cc(Nc3ccc(Oc4ccccc4)cc3)ncn2)c1 [I-62, (E)-N-3-[6-(4-phenoxyphenyl)amino-pyrimidin-4-yl]aminophenyl-4-(dimethylamino)but-2-enamide]",–,–,100 to 1000 nM,≤ 10 nM
"C=CC(=O)N1CCCC(Nc2cc(Nc3ccc(F)c(Cl)c3)ncn2)C1 (stereo not shown) [I-71, 1-(3-(6-(3-chloro-4-fluorophenyamino)pyrimidin-4-ylamino)piperidin-1-yl)prop-2-en-1-one]",≤ 10 nM,–,1000 to 10000 nM,1000 to 10000 nM
"C=CC(=O)Nc1ccc(Nc2cc(Nc3ccc(Oc4ccccc4)cc3)ncn2)cc1 [I-80, N-4-[6-(4-phenoxyphenyl)amino-pyrimidin-4-yl]aminophenylpropenamide]",100 to 1000 nM,–,≥ 10000 nM,1000 to 10000 nM
"C=C(C)C(=O)c1cccc(Nc2cc(Nc3ccc(Oc4ccccc4)cc3)ncn2)c1 [I-83, 2-methyl-1-(3-(6-(4-phenoxyphenylamino)pyrimidin-4-ylamino)phenyl)prop-2-en-1-one]",≤ 10 nM,–,–,≤ 10 nM
C=C(C#N)C(O)c1cccc(Nc2cc(Nc3ccc(Oc4ccccc4)cc3)ncn2)c1 (stereo not shown) [I-84],10 to 100 nM,–,≥ 10000 nM,1000 to 10000 nM
"C=CC(=O)N1CCC(Nc2cc(Nc3ccc(Oc4ccccc4)cc3)ncn2)C1 (stereo not shown) [I-85, 1-(3-(6-(4-phenoxyphenylamino)pyrimidin-4-ylamino)pyrrolidin-1-yl)prop-2-en-1-one]",10 to 100 nM,–,1000 to 10000 nM,10 to 100 nM
"CN(C)C/C=C/C(=O)Nc1cccc(Nc2cc(Oc3ccc(F)c(Cl)c3)ncn2)c1 [I-92, (E)-N-(3-(6-(3-chloro-4-fluorophenoxy)pyrimidin-4-ylamino)phenyl)-4-(dimethylamino)but-2-enamide]",–,–,10 to 100 nM,10 to 100 nM
"C=CC(=O)Nc1cc(Nc2cc(Oc3ccc(Oc4ccccc4)cc3)ncn2)cc(C(=O)NCCOC)c1 [I-102, 3-acrylamido-N-(2-methoxyethyl)-5-(6-(4-phenoxyphenoxy)pyrimidin-4-ylamino)benzamide]",≤ 10 nM,–,–,10 to 100 nM
"C=CC(=O)Nc1cccc(Nc2cc(Sc3ccc(Oc4ccccc4)cc3)ncn2)c1 [I-103, N-(3-(6-(4-phenoxyphenylthio)pyrimidin-4-ylamino)phenyl)acrylamide]",≤ 10 nM,–,–,100 to 1000 nM
"C=CC(=O)N1CC(C)(C)Oc2ccc(Nc3cc(Oc4cccc(Cl)c4)ncn3)cc21 [I-104, 1-(6-(6-(3-chlorophenoxy)pyrimidin-4-ylamino)-2,2-dimethyl-2H-benzo[b][1,4]oxazin-4(3H)-yl)prop-2-en-1-one]",≤ 10 nM,–,–,≤ 10 nM
